Data on 15 compounds can be found in US6841533B1, “Conformationally constrained backbone cyclized interleukin-6 antagonists” (Peptor Limited, priority 1995, dated 2005).

Numbered stars: 1 amine (or outer) side, 2 acyl side, 3 side chain; on linkers, the order of the positions; unused ones are H or OH. Bridge positions count the residues as written; N and C are the ends. Square brackets hold non-standard residues; d marks the D form. Ends that are not written are not given here. Peptide text beside a SMILES is read from it. TrpN2 = Trp building unit for backbone cyclization, bridging arm N2; Ala(Nα-(CH2)3CO) = C[C@@H](C(=O)[*:2])N(CCCC(=O)[*:3])[*:1]; Ala(Nα-(CH2)3NH) = C[C@@H](C(=O)[*:2])N(CCCN[*:3])[*:1]; Phe(4-NO2) = N[C@@H](Cc1ccc([N+](=O)[O-])cc1)C(=O)O; 4Pal = N[C@@H](Cc1ccncc1)C(=O)O; LysC3 = not defined here; Orn = NCCC[C@H](N)C(=O)O

Assay [1] has as its system TF1 cells maintained with IL-6. Nature of the assay: Bioassay using TF1 cells maintained with IL-6. As to conditions: for Inhibition of IL-6 activity (%), Experiment 24, WST, IL-6 / Inhibition of IL-6 activity (%), Experiment 24, 3H-T, IL-6: cells with IL-6; for Inhibition of IL-6 activity (%), Experiment 24, 3H-T, IL-6: Experiment 24, thymidine incorporation; for specificity of inhibition, IL-6 versus GM-CSF maintained TF1 cells: in words, Table 7 and FIG. 4. Format: cell-based, human. The source says:
TF1 cells (human erythroleukemia) cells require IL-6 for growth and thus inhibition of IL-6 bioactivity results in cell death, similar to T1165 cells. The origin of all relevant molecules is human.
(§1) The problem associated with toxicity (false positive results), could be overcome in the TF1 based assay since these cells can be induced by additional cytokines which are unrelated to IL-6 (not using the gp130 signal transducer). It, is possible to induce the cells to grow with IL-6 and with additional cytokine e.g. GM-CSF. Specific inhibition of IL-6 bioactivity is therefore expected to register only in cells induced by IL-6 and not with GM-CSF. […] Assay procedure is based on the procedure described in Fourcin et al. (ibid). The amount of viable cells at the end of the assay is determined by staining the cells with WST reagent as well as by measuring thymidine corporation (^3H-T).
The libraries were screened for binding of soluble IL-6. The information obtained was used for synthesis of backbone cyclic peptides in MPS format. Analyses for biological activity were performed on the TF1 human cell line.
(§2) Since the endpoint of the bioassay used is cell death, there is a need to check the specificity of the killing action, and to examine whether the cell death is due to inhibition of the IL-6 signaling pathway. The peptide analogs were therefore analyzed for their ability to induce non-specific cell death when the same cells were maintained with GM-CSF (instead of IL-6) as growth factor.
(Uptake of a labelled nucleoside into DNA is a usual measure of proliferation.)

Assay [2] deals with TF1 cells maintained with GM-CSF. Nature of the assay: Selectivity bioassay using TF1 cells maintained with GM-CSF. As to conditions: for Inhibition (%), Experiment 24, 3H-T, GM-CSF: Experiment 24, thymidine incorporation. Format: cell-based, human.
Source text: as §1, §2

Source text for B16.F10.9 melanoma cells: The F10.9 sub-line of B16 (murine melanoma) expresses gp130 but not IL-6R. Addition of human IL-6 and human IL-6R, or a chimera of IL-6/IL-6R results in differentiation which is associated with growth arrest of the cells. Inhibition of IL-6 results in continued growth. Since the end point of this assay is cell growth rather than cell death, this assay system was used primarily in order to differentiate between suspected toxic effects observed on B9 or T1165 cells, and true inhibition of IL-6 activity.
Evaluation of the results in this assay is possible using two methods. One method uses vital dyes for monitoring cell growth. The second method comprises visual observation of the cell morphology and establishing a cut off point based on the following observations:
Cells which are not treated with IL-6 create a monolayer that covers almost all the surface area. Treatment with IL-6 causes growth arrest and a morphological change: the cells become very narrow and elongated as compared to the more spread out shape of the non-treated cells.
Peptides were added to B16.F10.9 melanoma cells in the presence of 200 ng/ml IL-6 and 125 ng/ml sIL-6R. Incubation for three days.

Regarding `CC(C)C[C@H](NC(=O)[C@H](CCCNC(=N)N)NC(=O)[C@@H](N)Cc1ccc(O)cc1)C(=O)N[C@@H](CCCNC(=N)N)C(=O)N[C@@H](Cc1ccccc1)C(=O)N1CCCC(=O)NCCCN([C@@H](C)C(=O)N[C@@H](C)C(=O)N[C@@H](CCC(=O)O)C(N)=O)C(=O)[C@H](Cc2ccc(O)cc2)NC(=O)[C@H](CCCNC(=N)N)NC(=O)[C@H](CC(C)C)NC(=O)[C@@H]1C` [PTR 5037, Tyr-Arg-Leu-Arg-Phe-AlaC3-Leu-Arg-Tyr-AlaN3-Ala-Glu] (H-YRLRF[Ala(Nα-(CH2)3CO)]LRY[Ala(Nα-(CH2)3NH)]AE-NH2; lactam 6-10; N-terminus and C-terminus assumed), the “IC50 in the B16F10.9 cell assay” value in the assay with B16.F10.9 melanoma cells was “around 20 μg/ml”.

As for “(D)Bip-(D)LysC3-Orn-Lys-AsnN2-Arg-NH2 [Peptide 20]”, in assay [1], the “Inhibition of IL-6 activity (%), Experiment 23, WST, a” value is 37%; the “Inhibition of IL-6 activity (%), Experiment 23, WST, b” value was 56%; the “Inhibition of IL-6 activity (%), Experiment 24, WST, IL-6” value is given as 49%; the “Inhibition of IL-6 activity (%), Experiment 24, 3H-T, IL-6” value stood at 78%. In assay [2], the “Inhibition (%), Experiment 24, WST, GM-CSF” value (shortened to “Inhibition (%) … WST, GM-CSF”) is given as −59% and the “Inhibition (%), Experiment 24, 3H-T, GM-CSF” value (“Inhibition (%) … 3H-T, GM-CSF” below) is given as −42%.

For “(D)PheC2-(D)Cit-Dpr-HomArg-(D)GlnN2-(D)Gln-NH2 [Peptide 17]”, in assay [1], the “Inhibition of IL-6 activity (%), Experiment 23, WST, a” value stood at 50%; the “Inhibition of IL-6 activity (%), Experiment 23, WST, b” value is 44%; the “Inhibition of IL-6 activity (%), Experiment 24, WST, IL-6” value is 67%; the “Inhibition of IL-6 activity (%), Experiment 24, 3H-T, IL-6” value stood at 80%. For the same compound, in assay [2], the “Inhibition (%) … WST, GM-CSF” value was −23% and the “Inhibition (%) … 3H-T, GM-CSF” value is −30%.

For the compound “Lys(ZCL)-GlyC2-Dab-(D)Glu-(D)AlaN3-(D)Trp-NH2 [Peptide 57]”, in assay [1], the “Inhibition of IL-6 activity (%), Experiment 23, WST, a” value worked out at 122%; the “Inhibition of IL-6 activity (%), Experiment 23, WST, b” value amounted to 114%; the “Inhibition of IL-6 activity (%), Experiment 24, WST, IL-6” value amounted to 121%; the “Inhibition of IL-6 activity (%), Experiment 24, 3H-T, IL-6” value is given as 114%. In addition, in assay [2], the “Inhibition (%) … WST, GM-CSF” value is recorded as 48% and the “Inhibition (%) … 3H-T, GM-CSF” value is recorded as 102%.

As for “(D)Bip-(D)LysC3-4PyrAla-Orn-TrpN2-(p-NO2)Phe-NH2 [Peptide 41]”, in assay [1], the “Inhibition of IL-6 activity (%), Experiment 23, WST, a” value worked out at 96%; the “Inhibition of IL-6 activity (%), Experiment 23, WST, b” value was found to be 100%; the “Inhibition of IL-6 activity (%), Experiment 24, WST, IL-6” value is listed as 95%; the “Inhibition of IL-6 activity (%), Experiment 24, 3H-T, IL-6” value is reported as 101%. Moreover, in assay [1], the “specificity of inhibition, IL-6 versus GM-CSF maintained TF1 cells” value was “clearly specific to the IL-6 pathway”. Moreover, in assay [2], the “Inhibition (%) … WST, GM-CSF” value is reported as 25% and the “Inhibition (%) … 3H-T, GM-CSF” value is listed as −13%.

For “Lys-TrpC2-(D)Arg-Lys-TrpN3-Gln-NH2 [Peptide 34]”, in assay [1], the “Inhibition of IL-6 activity (%), Experiment 23, WST, a” value is recorded as 97%; the “Inhibition of IL-6 activity (%), Experiment 23, WST, b” value turned out to be 108%; the “Inhibition of IL-6 activity (%), Experiment 24, WST, IL-6” value came out at 96%; the “Inhibition of IL-6 activity (%), Experiment 24, 3H-T, IL-6” value is 106%. Besides, the “specificity of inhibition, IL-6 versus GM-CSF maintained TF1 cells” value in assay [1] is recorded as “clearly specific to the IL-6 pathway”. In addition, in assay [2], the “Inhibition (%) … WST, GM-CSF” value is −27% and the “Inhibition (%) … 3H-T, GM-CSF” value was found to be 3%.

On to “LysC3-Lys-4PyrAla-Orn-TrpN2-(p-NO2)Phe-NH2 ([LysC3]K[4Pal][Orn][TrpN2][Phe(4-NO2)]-NH2; bridge 1-5; reading uncertain; also: backbone cyclization, places not given here, printed as LysC3-Lys-4PyrAla-Orn-TrpN2-(p-NO2)Phe-NH2) [Peptide 40]”, for which, in assay [1], the “Inhibition of IL-6 activity (%), Experiment 23, WST, a” value is given as 42%; the “Inhibition of IL-6 activity (%), Experiment 23, WST, b” value is 72%; the “Inhibition of IL-6 activity (%), Experiment 24, WST, IL-6” value came to 43%; the “Inhibition of IL-6 activity (%), Experiment 24, 3H-T, IL-6” value is reported as 61%. For the same compound, in assay [2], the “Inhibition (%) … WST, GM-CSF” value is −45% and the “Inhibition (%) … 3H-T, GM-CSF” value is −63%.

Take “LysC4-Lys-(D)Arg-Lys-TrpN3-Gln-NH2 [Peptide 33]”: in assay [1], the “Inhibition of IL-6 activity (%), Experiment 23, WST, a” value is listed as 116%; the “Inhibition of IL-6 activity (%), Experiment 23, WST, b” value is 119%; the “Inhibition of IL-6 activity (%), Experiment 24, WST, IL-6” value stood at 112%; the “Inhibition of IL-6 activity (%), Experiment 24, 3H-T, IL-6” value came to 113%. In assay [2], the “Inhibition (%) … WST, GM-CSF” value was determined as 39% and the “Inhibition (%) … 3H-T, GM-CSF” value came to 70%.

“(D)Bip-(D)LysC2-Lys-Lys(ZCl)-(D)TrpN2-Abu-NH2 [Peptide 88]”: in assay [1], the “Inhibition of IL-6 activity (%), Experiment 23, WST, a” value stood at 96%; the “Inhibition of IL-6 activity (%), Experiment 23, WST, b” value is recorded as 98%; the “Inhibition of IL-6 activity (%), Experiment 24, WST, IL-6” value worked out at 112%; the “Inhibition of IL-6 activity (%), Experiment 24, 3H-T, IL-6” value came to 114%. Further, in assay [2], the “Inhibition (%) … WST, GM-CSF” value stood at 103% and the “Inhibition (%) … 3H-T, GM-CSF” value was found to be 115%.

Take “(D)Bip-GlyC2-Dab-(D)Glu-(D)AlaN3-Abu-NH2 [Peptide 91]”: in assay [1], the “Inhibition of IL-6 activity (%), Experiment 23, WST, a” value is given as 98%; the “Inhibition of IL-6 activity (%), Experiment 23, WST, b” value is 106%; the “Inhibition of IL-6 activity (%), Experiment 24, WST, IL-6” value is 123%; the “Inhibition of IL-6 activity (%), Experiment 24, 3H-T, IL-6” value is given as 113%. Also, in assay [2], the “Inhibition (%) … WST, GM-CSF” value was found to be 45% and the “Inhibition (%) … 3H-T, GM-CSF” value amounted to 75%.

Consider “Lys(ZCL)-AlaC2-Dab-(D)Glu-(D)AlaN3-(D)Trp-NH2 [Peptide 25]”, for which, in assay [1], the “Inhibition of IL-6 activity (%), Experiment 23, WST, a” value was 54%; the “Inhibition of IL-6 activity (%), Experiment 23, WST, b” value was 54%; the “Inhibition of IL-6 activity (%), Experiment 24, WST, IL-6” value was 77%; the “Inhibition of IL-6 activity (%), Experiment 24, 3H-T, IL-6” value was determined as 104%. Besides, in assay [2], the “Inhibition (%) … WST, GM-CSF” value is reported as −49% and the “Inhibition (%) … 3H-T, GM-CSF” value stood at 26%.

As for “Gln-GlyC2-(D)Dab-Arg(MTR)-TrpN2-Trp-NH2 [Peptide 61]”, in assay [1], the “Inhibition of IL-6 activity (%), Experiment 23, WST, a” value came out at 54%; the “Inhibition of IL-6 activity (%), Experiment 23, WST, b” value worked out at 58%; the “Inhibition of IL-6 activity (%), Experiment 24, WST, IL-6” value is recorded as 86%; the “Inhibition of IL-6 activity (%), Experiment 24, 3H-T, IL-6” value turned out to be 58%. In assay [2], the “Inhibition (%) … WST, GM-CSF” value stood at 4% and the “Inhibition (%) … 3H-T, GM-CSF” value was −49%.

As to “Trp-Arg-Lys-(D)Arg-Phe-AlaC3-Leu-Arg-Tyr-AlaN3-NH2 [PTR 5049]”, the “concentration that fully blocks IL-6 activity” value with B16.F10.9 melanoma cells (200 ng/ml IL-6 and 125 ng/ml sIL-6R, three days, FIG. 2) was “not active”.

With “Dab-TrpC2-Dpr-Arg(MTR)-(D)AlaN3-Glu-NH2 [Peptide 83]”, in assay [1], the “Inhibition of IL-6 activity (%), Experiment 23, WST, a” value was 2%; the “Inhibition of IL-6 activity (%), Experiment 23, WST, b” value came out at 4%; the “Inhibition of IL-6 activity (%), Experiment 24, WST, IL-6” value amounted to 31%; the “Inhibition of IL-6 activity (%), Experiment 24, 3H-T, IL-6” value was determined as 51%. Besides, in assay [2], the “Inhibition (%) … WST, GM-CSF” value was −5% and the “Inhibition (%) … 3H-T, GM-CSF” value is given as 12%.

With “(D)PheC2-(D)Bip-Arg-Lys-(D)TrpN2-Gln-NH2 [Peptide 81]”, in assay [1], the “Inhibition of IL-6 activity (%), Experiment 23, WST, a” value is 38%; the “Inhibition of IL-6 activity (%), Experiment 23, WST, b” value was found to be 46%; the “Inhibition of IL-6 activity (%), Experiment 24, WST, IL-6” value stood at 92%; the “Inhibition of IL-6 activity (%), Experiment 24, 3H-T, IL-6” value is given as 93%. For the same compound, in assay [2], the “Inhibition (%) … WST, GM-CSF” value is given as 43% and the “Inhibition (%) … 3H-T, GM-CSF” value amounted to 27%.
